According to patent US12274709B2, “Dual-drug co-delivery system, preparation method therefor and use thereof” (Institute of Basic Medical Sciences Chinese Academy of …, priority 2019, dated 2025):
Counter-ions that a name gives are not always drawn.

Tests used:
Format in all cases: cell-based
HeLa cells = assay: CCK8 cell viability, HeLa cells; details: Homo sapiens, HHT 20 ng/mL, DOX 120 ng/mL (6:1)
Protocol: (§1) Cells in the Corning 96-well U plates were incubated for 24 h and then washed with PBS, 110 μL CCK8 dilution was added to each well and incubated for 2 h, and the absorbance values (OD) at wavelengths of 450 and 630 nm were measured using the microplate reader. The cell viability was calculated according to Formula 1.

MCF7 cells = assay: CCK8 cell viability, MCF7 cells; details: Homo sapiens, HHT 25 ng/mL, DOX 100 ng/mL (4:1)
Protocol: as §1

[1] = test system: HL60/A cells (HL60 cells resistant to Doxorubicin); assay: CCK8 cell viability, HL60/A cells; details: 24 h
Protocol: Taking HL60/A cells (HL60 cells resistant to Doxorubicin) as an example, the specific method was as follows:
as §1

K562 cells = assay: CCK8 cell viability, K562 cells; details: Homo sapiens, HHT 25 ng/mL, DOX 375 ng/mL (15:1)
Protocol: as §1

[2] = test system: U937R (cytarabine-resistant strain, acute myeloid leukemia); assay: CCK8 cell viability, U937R cells; details: HHT 15 ng/mL, DOX 120 ng/mL (8:1)
Protocol: as §1

Row | SMILES | viability at 0.12 µg/mL (HeLa cells) [%] | viability at 0.1 µg/mL (MCF7 cells) [%] | cytotoxicity against Doxorubicin-resistant strain HL60/A ([1]; DOX 200 ng/mL, FIG. 3) | viability at 0.375 µg/mL (K562 cells) [%] | viability at 0.12 µg/mL [2] [%] | viability at 0.02 µg/mL (HeLa cells) [%] | viability at 0.025 µg/mL (MCF7 cells) [%] | viability at 0.025 µg/mL ([1]; Homo sapiens, HL60/A cells, HHT 25 ng/mL, DOX 200 ng/mL (DOX:HHT 8:1), FIG. 3, system of Example 1) [%] | viability at 0.025 µg/mL (K562 cells) [%] | viability at 0.015 µg/mL [2] [%]
1 | COc1cccc2c1C(=O)c1c(O)c3c(c(O)c1C2=O)C[C@@](O)(C(=O)CO)C[C@@H]3O[C@H]1C[C@H](N)[C@H](O)[C@H](C)O1 [DOX, Doxorubicin hydrochloride] | 90 | 92 | no cytotoxicity | 80 | 55 |  |  |  |  | 
2 | COC(=O)C[C@](O)(CCCC(C)(C)O)C(=O)O[C@@H]1C(OC)=C[C@]23CCCN2CCc2cc4c(cc2[C@H]13)OCO4 [HHT, Homoharringtonine] |  |  |  |  |  | 41 | 50 | 56 | 59 | 59
